Drawing on patent US8350028B2, “2-aminoquinolines” (Hofmann-La Roche Inc., priority 2008, dated 2013), this text covers Ki for 18 molecules.

T1 sequence (P47898 whole entry): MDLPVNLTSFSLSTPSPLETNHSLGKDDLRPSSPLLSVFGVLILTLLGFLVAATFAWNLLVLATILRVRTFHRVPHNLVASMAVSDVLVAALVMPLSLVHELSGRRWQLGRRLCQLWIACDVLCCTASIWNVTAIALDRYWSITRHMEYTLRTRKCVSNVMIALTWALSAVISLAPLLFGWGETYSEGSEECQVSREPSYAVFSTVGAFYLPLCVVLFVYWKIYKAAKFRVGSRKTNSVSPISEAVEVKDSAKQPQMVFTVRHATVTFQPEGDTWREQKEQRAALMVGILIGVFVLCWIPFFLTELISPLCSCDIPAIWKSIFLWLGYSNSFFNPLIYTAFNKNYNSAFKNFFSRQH

This test concerns the target T1, recombinant human 5-HT5A receptor (Homo sapiens, UniProt P47898).
T1 construct: expressed in transfected cells; host or cells: HEK-EBNA (Human Embryonic Kidney-EBNA) cells, transient cDNA expression; membranes
The test can be described thus: [3H]LSD radioligand binding assay. The following applies: [3H]LSD (approximately 1 nM); membranes from HEK-EBNA cells transiently expressing 5-HT5A receptors; Ki calculated from IC50 using the Cheng-Prussoff equation. As for the experimental part:
A [^3H]LSD radioligand binding assay was used to determine the affinity of the compounds for the recombinant human 5-HT5A receptor, in membranes from transiently (cDNA) expressed 5-HT5A receptors in Human Embryonic Kidney-EBNA (HEK-EBNA) cells. Assay buffer consisted of Tris (50 mM) buffer containing 1 mM EGTA, 10 mM MgCl2 (pH 7.4) and 10 μM pargyline. The binding assay was carried out in 96-well-plates in the presence of [^3H]LSD (approximately 1 nM), approximately 2 μg/well of membrane protein, and 0.5 mg of Ysi-poly-1-lysine SPA beads in a final volume of 200 μl of buffer. Non-specific binding was defined using methiothepin 2 μM. Compounds were tested at 10 concentrations. All assays were conducted in duplicate and repeated at least two times. Assay plates were incubated for 120 min at room temperature before centrifugation. Bound ligand was determined using a Packard Topcount scintillation counter. IC50 values were calculated using a non-linear curve fitting program and Ki values calculated using the Cheng-Prussoff equation.
The Ki is the equilibrium dissociation constant of an inhibitor or competing ligand from its target. `COc1ccccc1CNc1ccc2cc(NS(=O)(=O)N(C)C)ccc2n1` [Example 10, N′-{2-[(2-methoxybenzyl)amino]quinolin-6-yl}-N,N-dimethylsulfamide]: the inhibition constant Ki was 17.1 nM.
As for `COc1ccccc1CNc1ccc2cc(NC(=O)NC(C)C)ccc2n1` [Example 14, 1-Isopropyl-3-[2-(2-methoxy-benzylamino)-quinolin-6-yl]-urea], the figure is 3.3 nM; as for `COc1ccccc1CNc1ccc2cc(NC(=O)NC3CCN(C)CC3)ccc2n1` [Example 17, 1-[2-(2-Methoxy-benzylamino)-quinolin-6-yl]-3-(1-methyl-piperidin-4-yl)-urea], 2.7 nM.
In the case of `COc1ccc(CNc2ccc3cc(NC(=O)NC(C)C)ccc3n2)cc1` [Example 18, 1-Isopropyl-3-[2-(4-methoxy-benzylamino)-quinolin-6-yl]-urea], the inhibitory constant (Ki) is 49.5 nM.
Regarding `COc1ccccc1CNc1ccc2cc(NS(=O)(=O)N3C[C@@H]4C[C@H]3CO4)ccc2n1` [Example 19, (1S,4S)-2-Oxa-5-aza-bicyclo[2.2.1]heptane-5-sulfonic acid [2-(2-methoxy-benzylamino)-quinolin-6-yl]-amide], the inhibition constant (Ki) was 8 nM.
Regarding `COc1ccccc1CNc1ccc2cc(NS(=O)(=O)NC3CC3)ccc2n1` [Example 20, N-cyclopropyl-N′-{2-[(2-methoxybenzyl)amino]quinolin-6-yl}sulfamide], the inhibition constant (Ki) is 26.8 nM.
For `Cc1ccc(CNc2ccc3cc(NC(=O)NC(C)C)ccc3n2)o1` [Example 21, 1-Isopropyl-3-{2-[(5-methyl-furan-2-ylmethyl)-amino]-quinolin-6-yl}-urea] the value was 27.4 nM; for `COCCN1CCC(NC(=O)Nc2ccc3nc(NCc4ccccc4OC)ccc3c2)CC1` [Example 23, 1-[2-(2-Methoxy-benzylamino)-quinolin-6-yl]-3-[1-(2-methoxy-ethyl)-piperidin-4-yl]-urea], 6.4 nM.
Take `COc1ccccc1CNc1ccc2cc(NC(=O)NC3CCN(CCF)CC3)ccc2n1` [Example 24, 1-[1-(2-Fluoro-ethyl)-piperidin-4-yl]-3-[2-(2-methoxy-benzylamino)-quinolin-6-yl]-urea]: the inhibition constant (Ki) was 8.4 nM.
For `COc1ccccc1CNc1ccc2cc(NC(=O)NC3CCN(C(C)C)CC3)ccc2n1` [Example 25, 1-(1-Isopropyl-piperidin-4-yl)-3-[2-(2-methoxy-benzylamino)-quinolin-6-yl]-urea] the value was 6.7 nM.
As for `COc1ccccc1CNc1ccc2cc(NC(=O)NC3CCN(C(=O)CC(F)(F)F)CC3)ccc2n1` [Example 26], the figure is 36.2 nM; as for `COc1ccccc1CNc1ccc2cc(NC(=O)NC3CCN(C(=O)CF)CC3)ccc2n1` [Example 27, 1-[1-(2-Fluoro-acetyl)-piperidin-4-yl]-3-[2-(2-methoxy-benzylamino)-quinolin-6-yl]-urea], 15.7 nM.
Regarding `COc1ccccc1CNc1ccc2cc(NC(=O)NC3CCN(C4CC4)CC3)ccc2n1` [Example 28, 1-(1-Cyclopropyl-piperidin-4-yl)-3-[2-(2-methoxy-benzylamino)-quinolin-6-yl]-urea], the inhibition constant (Ki) was 6.8 nM.
As for `Cc1ccc(CNc2ccc3cc(NC(=O)NC4CCN(C)CC4)ccc3n2)o1` [Example 29, 1-{2-[(5-Methyl-furan-2-ylmethyl)-amino]-quinolin-6-yl}-3-(1-methyl-piperidin-4-yl)-urea], the figure is 12.5 nM; as for `COc1ccccc1CNc1ccc2cc(NC(=O)NC3CCN(CCSC)CC3)ccc2n1` [Example 30, 1-[2-(2-Methoxy-benzylamino)-quinolin-6-yl]-3-[1-(2-methylsulfanyl-ethyl)-piperidin-4-yl]-urea], 5.9 nM; as for `COCC(=O)N1CCC(NC(=O)Nc2ccc3nc(NCc4ccccc4OC)ccc3c2)CC1` [Example 31, 1-[1-(2-Methoxy-acetyl)-piperidin-4-yl]-3-[2-(2-methoxy-benzylamino)-quinolin-6-yl]-urea], 20.4 nM.
For `COc1ccccc1CNc1ccc2cc(NC(=O)C3CC3)ccc2n1` [Example 32, Cyclopropanecarboxylic acid [2-(2-methoxy-benzylamino)-quinolin-6-yl]-amide] the value was 6.5 nM.
As for `COc1ccccc1CNc1ccc2cc(NC(=O)CN3CCN(C)CC3)ccc2n1` [Example 33, N-[2-(2-Methoxy-benzylamino)-quinolin-6-yl]-2-(4-methyl-piperazin-1-yl)-acetamide], the figure is 33 nM.
